Our source for the IC50 values is patent US8329904B2, “Azacyclic derivatives” (Hoffmann-La Roche Inc., priority 2009, dated 2012).

As a reminder, the IC50 is the midpoint of a concentration-inhibition curve.

For the assay, the target named is T1, human HSL (Homo sapiens, UniProt Q05469).
T1 construct: overlapping PCR to generate a full length human HSL ORF with a 3′-His6 tag; His6 (C); made in house; host or cells: High 5 insect cells (baculovirus, pFast-BAC)
T1 sequence (Q05469 1-1076): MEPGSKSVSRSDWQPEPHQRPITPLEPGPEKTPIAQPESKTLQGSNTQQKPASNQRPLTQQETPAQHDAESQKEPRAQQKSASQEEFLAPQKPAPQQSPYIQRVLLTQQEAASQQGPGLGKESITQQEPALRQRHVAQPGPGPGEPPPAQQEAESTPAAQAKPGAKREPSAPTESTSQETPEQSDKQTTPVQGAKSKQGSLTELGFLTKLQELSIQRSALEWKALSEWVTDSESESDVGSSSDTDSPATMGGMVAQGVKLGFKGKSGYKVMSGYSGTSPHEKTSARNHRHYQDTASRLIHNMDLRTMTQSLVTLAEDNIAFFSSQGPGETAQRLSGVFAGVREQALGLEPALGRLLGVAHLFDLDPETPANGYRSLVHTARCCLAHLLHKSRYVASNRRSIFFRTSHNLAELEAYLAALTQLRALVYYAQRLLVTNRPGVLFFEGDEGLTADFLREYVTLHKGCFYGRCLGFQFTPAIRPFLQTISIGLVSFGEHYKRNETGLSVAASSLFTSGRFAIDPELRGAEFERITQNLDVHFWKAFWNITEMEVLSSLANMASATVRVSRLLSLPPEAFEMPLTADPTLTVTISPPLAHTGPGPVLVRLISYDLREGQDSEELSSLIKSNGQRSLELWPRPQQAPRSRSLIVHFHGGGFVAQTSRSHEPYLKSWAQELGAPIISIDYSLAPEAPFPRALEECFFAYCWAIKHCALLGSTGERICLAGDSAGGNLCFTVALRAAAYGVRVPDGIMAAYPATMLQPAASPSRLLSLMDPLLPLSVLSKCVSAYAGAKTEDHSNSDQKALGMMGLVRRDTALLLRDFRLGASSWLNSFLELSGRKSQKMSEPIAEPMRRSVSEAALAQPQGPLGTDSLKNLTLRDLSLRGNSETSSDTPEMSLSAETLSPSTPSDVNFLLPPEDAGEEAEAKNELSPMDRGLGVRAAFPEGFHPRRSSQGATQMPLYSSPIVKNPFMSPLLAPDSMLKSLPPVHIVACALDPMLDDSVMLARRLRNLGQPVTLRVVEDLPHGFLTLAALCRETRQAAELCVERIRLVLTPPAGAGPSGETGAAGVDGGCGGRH
Nature of the assay: Human Hormone-Sensitive Lipase (HSL) Enzyme Inhibition Assay. The format is biochemical. The conditions noted are these: colorimetric assay, 2,3-dimercapto-1-propanol tributyrate (DMPT) substrate, 37° C. for 20 minutes, absorbance at 405 nm; read-out: HSL hum IC50. The method, boiled down: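 Colorimetric thioester hydrolysis: compounds in DMSO series mixed with DMPT (1.5 mM) in MOPS pH 7.2 with BSA, then baculovirus-expressed His6-tagged full-length human HSL added, 37° C, 20 min. DTNB plus detergents added, 15 min room temperature, absorbance at 405 nm.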
In the case of `CN(Cc1ccccc1)C(=O)N1CCC2(CC1)CCN(c1ccc(OC(F)(F)F)cc1)C2=O` [Example 278, 1-Oxo-2-(4-trifluoromethoxy-phenyl)-2,8-diaza-spiro[4.5]decane-8-carboxylic acid benzyl-methyl-amide], the IC50 turned out to be 120 nM. Then `CC(C)Oc1ccc(N2CCC3(CCN(S(=O)(=O)c4ccccc4)CC3)C2=O)cc1` [Example 6, 8-Benzenesulfonyl-2-(4-isopropoxy-phenyl)-2,8-diaza-spiro[4.5]decan-1-one], with 40 nM; and `CCN(C(=O)N1CCC2(CC1)CCN(c1ccc(OC(F)(F)F)cc1)C2=O)c1ccc(Cl)cc1` [Example 309, 1-Oxo-2-(4-trifluoromethoxy-phenyl)-2,8-diaza-spiro[4.5]decane-8-carboxylic acid (4-chloro-phenyl)-ethyl-amide], with 120 nM; and `CC(C)CS(=O)(=O)N1CCC2(CCN(c3ccc(OC4CCCC4)cc3)C2=O)CC1` [Example 66, 2-(4-Cyclopentyloxy-phenyl)-8-(2-methyl-propane-1-sulfonyl)-2,8-diaza-spiro[4.5]decan-1-one], with 160 nM. On to `CCc1ccc(N2CCC3(CCN(S(=O)(=O)c4ccccc4Cl)CC3)C2=O)cc1` [Example 17, 8-(2-Chloro-benzenesulfonyl)-2-(4-ethyl-phenyl)-2,8-diaza-spiro[4.5]decan-1-one], for which the 50% inhibitory concentration (IC50) was 30 nM.

Turning to `O=C1N(c2ccc(OC(F)(F)F)cc2)CCC12CCN(S(=O)(=O)Nc1ccccc1)CC2` [Example 286, 1-Oxo-2-(4-trifluoromethoxy-phenyl)-2,8-diaza-spiro[4.5]decane-8-sulfonic acid phenylamide], the IC50 is 60 nM. As to `Cc1cc(CS(=O)(=O)N2CCC3(CCN(c4ccc(OC(F)(F)F)cc4)C3=O)CC2)no1` [Example 232, 8-(5-Methyl-isoxazol-3-ylmethanesulfonyl)-2-(4-trifluoromethoxy-phenyl)-2,8-diaza-spiro[4.5]decan-1-one], the IC50 is 90 nM. With `CC(C)c1cc(CS(=O)(=O)N2CCC3(CCN(c4ccc(OC(F)(F)F)cc4)C3=O)CC2)on1` [Example 233, 8-(3-Isopropyl-isoxazol-5-ylmethanesulfonyl)-2-(4-trifluoromethoxy-phenyl)-2,8-diaza-spiro[4.5]decan-1-one], the IC50 turned out to be 200 nM. Regarding `Cc1ccc(S(=O)(=O)N2CCC3(CCN(c4ccc(OS(C)(=O)=O)cc4)C3=O)CC2)s1` [Example 50, Methanesulfonic acid 4-[8-(5-methyl-thiophene-2-sulfonyl)-1-oxo-2,8-diaza-spiro[4.5]dec-2-yl]-phenyl ester], the IC50 was found to be 60 nM.

For `COc1cccc(CCN2CCC3(CCN(S(=O)(=O)c4ccccc4Cl)CC3)C2=O)c1` [Example 244, 8-(2-Chloro-benzenesulfonyl)-2-[2-(3-methoxy-phenyl)-ethyl]-2,8-diaza-spiro[4.5]decan-1-one], the 50% inhibitory concentration (IC50) was found to be 230 nM. Turning to `O=C1N(c2cnc(OCC(F)(F)F)nc2)CCC12CCN(S(=O)(=O)c1ccccc1)CC2` [Example 118, 8-Benzenesulfonyl-2-[2-(2,2,2-trifluoro-ethoxy)-pyrimidin-5-yl]-2,8-diaza-spiro[4.5]decan-1-one], the IC50 was determined as 470 nM. Next, `COCc1ccc(N2CCC3(CCN(S(=O)(=O)c4ccccc4Cl)CC3)C2=O)cc1` [Example 142, 8-(2-Chloro-benzenesulfonyl)-2-(4-methoxymethyl-phenyl)-2,8-diaza-spiro[4.5]decan-1-one]: 40 nM; `O=C1N(CCc2cccc(C(F)(F)F)c2)CCC12CCN(S(=O)(=O)c1ccccc1Cl)CC2` [Example 245, 8-(2-Chloro-benzenesulfonyl)-2-[2-(3-trifluoromethyl-phenyl)-ethyl]-2,8-diaza-spiro[4.5]decan-1-one]: 100 nM.

For the molecule `O=C1N(c2ccc(C3CC3)cc2)CCC12CCN(S(=O)(=O)c1ccc(F)cc1C(F)(F)F)CC2` [Example 72, 2-(4-Cyclopropyl-phenyl)-8-(4-fluoro-2-trifluoromethyl-benzenesulfonyl)-2,8-diaza-spiro[4.5]decan-1-one], the IC50 came out at 110 nM.
